{
  "source": "paper PMC13608006",
  "about": "(Journal of medicinal chemistry, 2018)",
  "data": [
    {"tested_on": "CV-B3 (CVB3-H3)", "type": "cell-based, coxsackievirus B3", "conditions": "not given", "values": [
      {"smiles": "O=C(Nc1ccccc1F)c1cc(-c2cccs2)nc2c1cnn2-c1ccccc1", "note": "[JX012, N-(2-Fluorophenyl)-1-phenyl-6-(thiophen-2-yl)-1H-pyrazolo[3,4-b]pyridine-4-carboxamide]", "antiviral activities against coxsackievirus B3 (CV-B3)": "none of the above analogs demonstrated antiviral activities"},
      {"smiles": "O=C(Nc1ccc(F)cc1)c1cc(-c2cccs2)nc2c1cnn2C1CCCCCC1", "note": "[JX029, 1-Cycloheptyl-N-(4-fluorophenyl)-6-(thiophen-2-yl)-1H-pyrazolo[3,4-b]pyridine-4-carboxamide]", "antiviral activities against coxsackievirus B3 (CV-B3)": "none of the above analogs demonstrated antiviral activities"},
      {"smiles": "O=C(Nc1ccccc1F)c1cc(-c2cccs2)nc2c1cnn2CC(F)(F)F", "note": "[JX022, N-(2-Fluorophenyl)-6-(thiophen-2-yl)-1-(2,2,2-trifluoroethyl)-1H-pyrazolo[3,4-b]pyridine-4-carboxamide]", "antiviral activities against coxsackievirus B3 (CV-B3)": "none of the above analogs demonstrated antiviral activities"},
      {"smiles": "COc1ccc(Cn2ncc3c(C(=O)Nc4ccc(F)cc4)cc(-c4cccs4)nc32)cc1", "note": "[JX031, N-(4-Fluorophenyl)-1-(4-methoxybenzyl)-6-(thiophen-2-yl)-1H-pyrazolo[3,4-b]pyridine-4-carboxamide]", "antiviral activities against coxsackievirus B3 (CV-B3)": "none of the above analogs demonstrated antiviral activities"},
      {"smiles": "O=C(Nc1ccc(F)cc1)c1cc(-c2cccs2)nc2c1cnn2C1CCCC1", "note": "[JX027, 1-Cyclopentyl-N-(4-fluorophenyl)-6-(thiophen-2-yl)-1H-pyrazolo[3,4-b]pyridine-4-carboxamide]", "antiviral activities against coxsackievirus B3 (CV-B3)": "none of the above analogs demonstrated antiviral activities"},
      {"smiles": "O=C(Nc1ccc(F)cc1)c1cc(-c2cccs2)nc2c1cnn2C1CCCCC1", "note": "[JX028, 1-Cyclohexyl-N-(4-fluorophenyl)-6-(thiophen-2-yl)-1H-pyrazolo[3,4-b]pyridine-4-carboxamide]", "antiviral activities against coxsackievirus B3 (CV-B3)": "none of the above analogs demonstrated antiviral activities"},
      {"smiles": "CC(C)(C)n1ncc2c(C(=O)Nc3ccccc3F)cc(-c3cccs3)nc21", "note": "[JX013, 1-(tert-Butyl)-N-(2-fluorophenyl)-6-(thiophen-2-yl)-1H-pyrazolo[3,4-b]pyridine-4-carboxamide]", "antiviral activities against coxsackievirus B3 (CV-B3)": "none of the above analogs demonstrated antiviral activities"},
      {"smiles": "O=C(Nc1ccc(F)cc1)c1cc(-c2cccs2)nc2[nH]ncc12", "note": "[JX032, N-(4-Fluorophenyl)-6-(thiophen-2-yl)-1H-pyrazolo[3,4-b]-pyridine-4-carboxamide]", "antiviral activities against coxsackievirus B3 (CV-B3)": "none of the above analogs demonstrated antiviral activities"}
    ]},
    {"tested_on": "CV-B3 (CVB3-H3)", "type": "cell-based, coxsackievirus B3", "conditions": "SI50 = CC50/EC50", "values": [
      {"smiles": "CC(C)n1ncc2c(C(=O)Nc3ccc(F)c(F)c3)cc(-c3cccs3)nc21", "note": "[JX015, N-(3,4-Difluorophenyl)-1-isopropyl-6-(thiophen-2-yl)-1H-pyrazolo[3,4-b]pyridine-4-carboxamide]", "SI50 (CV-B3 in HeLa cells)": "SI50: >153.8"},
      {"smiles": "CC(C)n1ccc2c(C(=O)Nc3ccc(F)cc3)cc(-c3cccs3)nc21", "note": "[JX037, N-(4-Fluorophenyl)-1-isopropyl-6-(thiophen-2-yl)-1H-pyrrolo[2,3-b]pyridine-4-carboxamide]", "SI50 (CV-B3 in HeLa cells)": "SI50: 64.5"},
      {"smiles": "CC(C)n1ncc2c(C(=O)Nc3ccccc3F)cc(-c3ccccn3)nc21", "note": "[JX004, N-(2-Fluorophenyl)-1-isopropyl-6-(pyridin-2-yl)-1H-pyrazolo[3,4-b]pyridine-4-carboxamide]", "SI50 (CV-B3 in HeLa cells)": "SI50: >29.0"},
      {"smiles": "CC(C)n1ncc2c(C(=O)Nc3ccccc3F)cc(-c3ccncc3)nc21", "note": "[JX003, N-(2-Fluorophenyl)-1-isopropyl-6-(pyridin-4-yl)-1H-pyrazolo[3,4-b]pyridine-4-carboxamide]", "SI50 (CV-B3 in HeLa cells)": "SI50: 7.4"},
      {"smiles": "CC(C)n1ncc2c(C(=O)Nc3ccccc3F)cc(-c3cccnc3)nc21", "note": "[JX005, N-(2-Fluorophenyl)-1-isopropyl-6-(pyridin-3-yl)-1H-pyrazolo[3,4-b]pyridine-4-carboxamide]", "SI50 (CV-B3 in HeLa cells)": "SI50: 5.4"}
    ]}
  ]
}
